Data from PMC5132016 (Clinical Pharmacology in Drug Development, 2016).

Columns and labels:
[1] = Single-dose pharmacokinetics of EE and LN; type: in vivo, human; settings: for Tmax: single oral Microgynon 30 alone, median (range), n = 19
[2] = cited from earlier work
[3] = tofacitinib 30 mg twice daily; cited from earlier work
[4] = female, human, plasma, oral, adjusted geometric mean, Reference (Microgynon 30 alone)
[5] = tofacitinib 30 mg twice daily vs Microgynon 30 alone
[6] = Microgynon 30 + tofacitinib / Microgynon 30 alone

What does the source list for `C#C[C@]1(O)CC[C@H]2[C@@H]3CCc4cc(O)ccc4[C@H]3CC[C@@]21C` [Ethinylestradiol, ethinylestradiol]?
AUC(0-inf) [1, 4]: 0.716 ng·h/mL; Tmax [1]: 1.5 (1.0–2.1) h; Decrease of maximal plasma concentration when coadministered with tofacitinib [1, 5]: 10.4%; Increase of AUC∞ in the presence of tofacitinib [1, 5]: 6.6%

What does the source list for `C#C[C@]1(O)CC[C@H]2[C@@H]3CCC4=CC(=O)CC[C@@H]4[C@H]3CC[C@@]21CC` [Levonorgestrel, levonorgestrel]?
Ratio (Test/Reference) of adjusted geometric means, AUClast [1, 6]: 104.60%; Ratio (Test/Reference) of adjusted geometric means, AUC∞ [1, 6]: 100.87%; Ratio (Test/Reference) of adjusted geometric means, Cmax [1, 6]: 112.19%; AUC(0-t) ([1]; female, human, plasma, oral, AUClast, adjusted geometric mean, Reference (Microgynon 30 alone)): 35 ng·h/mL; AUC(0-inf) [1, 4]: 44.6 ng·h/mL; Cmax ([1]; female, human, plasma, oral, Cmax, adjusted geometric mean, Reference (Microgynon 30 alone)): 3.78 ng/mL; Tmax [1]: 1.0 (1.0–2.0) h; Increase of AUC∞ in the presence of tofacitinib [1, 5]: 0.9%; Increase of maximal plasma concentration when coadministered with tofacitinib [1, 5]: 12.2%

What does the source list for `C[C@@H]1CCN(C(=O)CC#N)C[C@@H]1N(C)c1ncnc2[nH]ccc12` [Tofacitinib]?
Effect on the pharmacokinetics of EE and LN ([1]; tofacitinib 30 mg twice daily for 11 days, healthy women): no clinically relevant net inhibitory or inductive effect; Nonrenal share of clearance [2]: 70%; Renally excreted share of clearance [2]: 30%; Share of metabolism by CYP3A4 [2]: approximately 55%

With `Cc1ncc2n1-c1ccc(Cl)cc1C(c1ccccc1F)=NC2` [midazolam] as the molecule, how does the “Change in Cmax when coadministered with tofacitinib” value [3] read?
Its value is “no change”.

What about the “Change in total exposure (AUC∞) when coadministered with tofacitinib” value [3] of the same molecule?
The value was “no change”.
